Results taken from patent US20100311683A1, “CYTIDINE ANALOGS FOR TREATMENT OF MYELODYSPLASTIC SYNDROMES” (priority 2007, published 2010).
Like-named read-outs stand apart in the source and are kept apart here.

Tested on: MDS patients

Nc1ncn([C@@H]2O[C@H](CO)[C@@H](O)[C@H]2O)c(=O)n1 [azacitidine, 4-amino-1-β-D-ribofuranosyl-1,3,5-triazin-2(1H)-one]
onset of IWG-defined HI in Cycle 1 (AZA 5-2-2 (75 mg/m2/d), n=22): 9 (41) % | onset of IWG-defined HI in Cycle 2 (AZA 5-2-2 (75 mg/m2/d), n=22): 9 (41) % | onset of IWG-defined HI in Cycle 3 (AZA 5-2-2 (75 mg/m2/d), n=22): 1 (5) % | onset of IWG-defined HI in Cycle 4 (AZA 5-2-2 (75 mg/m2/d), n=22): 0% | onset of IWG-defined HI in Cycle 5 (AZA 5-2-2 (75 mg/m2/d), n=22): 2 (9) % | onset of IWG-defined HI in Cycle 6 (AZA 5-2-2 (75 mg/m2/d), n=22): 1 (5) % | FAB low-risk patients RBC transfusion independent at baseline who remained independent during the study (AZA 5-2-5 (50 mg/m2/d)): 80% | RBC transfusion-dependent patients who achieved and retained independence at the end of cycle 6 (AZA 5-2-5 (50 mg/m2/d)): 92% | evaluable patients RBC transfusion independent at baseline who remained independent during the study (AZA 5-2-5 (50 mg/m2/d)): 79% | mean duration of RBC transfusion independence (AZA 5-2-5 (50 mg/m2/d)): 138 days | onset of HI within the first 3 cycles (AZA 5-2-5 (50 mg/m2/d)): 88% | patients with at least 1 treatment-emergent AE that led to study discontinuation (AZA 5-2-5 (50 mg/m2/d)): 20% | patients with bilineage HI (AZA 5-2-5 (50 mg/m2/d)): 7% | patients with serious AEs (AZA 5-2-5 (50 mg/m2/d)): 40% | Any HI (major and minor) (AZA 5-2-5 (50 mg/m2/d), N=44): 23 (52) [37, 68] % | Erythroid Major HI (IWG 2000), evaluable patients (AZA 5-2-5 (50 mg/m2/d), N=44): 17 (39) [24, 55] % | Erythroid Minor HI (AZA 5-2-5 (50 mg/m2/d), N=44): 1 (2) [0.1, 12] % | Neutrophil Major HI (AZA 5-2-5 (50 mg/m2/d), N=44): 4 (9) [40, 100] % | Neutrophil Minor HI (AZA 5-2-5 (50 mg/m2/d), N=44): 0 [0, 8] % | Platelet Major HI (AZA 5-2-5 (50 mg/m2/d), N=44): 8 (18) [8, 33] % | Platelet Minor HI (AZA 5-2-5 (50 mg/m2/d), N=44): 0 [0, 8] % | Grade 3/4 AE: Anemia (AZA 5-2-5 (50 mg/m2/d), N=48): 7 (15) % | Grade 3/4 AE: Candida Sepsis (AZA 5-2-5 (50 mg/m2/d), N=48): 0% | Grade 3/4 AE: Cellulitis (AZA 5-2-5 (50 mg/m2/d), N=48): 1 (2) % | Grade 3/4 AE: Epistaxis (AZA 5-2-5 (50 mg/m2/d), N=48): 0% | Grade 3/4 AE: Febrile neutropenia (AZA 5-2-5 (50 mg/m2/d), N=48): 4 (8) % | Grade 3/4 AE: GI hemorrhage (AZA 5-2-5 (50 mg/m2/d), N=48): 1 (2) % | Grade 3/4 AE: Hematologic Disorders (AZA 5-2-5 (50 mg/m2/d), N=48): 24 (50) % | Grade 3/4 AE: Hemorrhagic Events (AZA 5-2-5 (50 mg/m2/d), N=48): 3 (6) % | Grade 3/4 AE: Hemorrhagic anemia (AZA 5-2-5 (50 mg/m2/d), N=48): 0 n (%) | Grade 3/4 AE: Infections (AZA 5-2-5 (50 mg/m2/d), N=48): 14 (29) % | Grade 3/4 AE: Leukopenia (AZA 5-2-5 (50 mg/m2/d), N=48): 4 (8) % | Grade 3/4 AE: Neutropenia (AZA 5-2-5 (50 mg/m2/d), N=48): 15 (31) % | Grade 3/4 AE: Pneumonia (AZA 5-2-5 (50 mg/m2/d), N=48): 4 (8) % | Grade 3/4 AE: Rectal hemorrhage (AZA 5-2-5 (50 mg/m2/d), N=48): 1 (2) % | Grade 3/4 AE: Thrombocytopenia (AZA 5-2-5 (50 mg/m2/d), N=48): 7 (15) % | Grade 3/4 AE: Urinary tract infection (AZA 5-2-5 (50 mg/m2/d), N=48): 3 (6) % | Grade 3/4 AE: ≥1 Adverse Event (AZA 5-2-5 (50 mg/m2/d), N=48): 37 (77) % | onset of IWG-defined HI in Cycle 1 (AZA 5-2-5 (50 mg/m2/d), n=24): 6 (25) % | onset of IWG-defined HI in Cycle 2 (AZA 5-2-5 (50 mg/m2/d), n=24): 8 (33) % | onset of IWG-defined HI in Cycle 3 (AZA 5-2-5 (50 mg/m2/d), n=24): 7 (29) % | onset of IWG-defined HI in Cycle 4 (AZA 5-2-5 (50 mg/m2/d), n=24): 2 (8) % | onset of IWG-defined HI in Cycle 6 (AZA 5-2-5 (50 mg/m2/d), n=24): 0% | hematologic AE: anemia (all 3 regimens): 29% | hematologic AE: leukopenia (all 3 regimens): 18% | hematologic AE: neutropenia (all 3 regimens): 38% | hematologic AE: thrombocytopenia (all 3 regimens): 24% | nonhematologic AE: constipation (all 3 regimens): 51% | nonhematologic AE: fatigue (all 3 regimens): 93% | nonhematologic AE: injection site erythema (all 3 regimens): 55% | nonhematologic AE: injection site pain (all 3 regimens): 54% | nonhematologic AE: nausea (all 3 regimens): 55% | Grade 3/4 AE: Anemia (all 3 regimens, N=148): 24 (16) % | Grade 3/4 AE: Candida Sepsis (all 3 regimens, N=148): 1 (1) % | Grade 3/4 AE: Cellulitis (all 3 regimens, N=148): 4 (3) % | Grade 3/4 AE: Epistaxis (all 3 regimens, N=148): 1 (1) % | Grade 3/4 AE: Febrile neutropenia (all 3 regimens, N=148): 9 (6) % | Grade 3/4 AE: GI hemorrhage (all 3 regimens, N=148): 2 (1) % | Grade 3/4 AE: Hematologic Disorders (all 3 regimens, N=148): 74 (50) % | Grade 3/4 AE: Hemorrhagic Events (all 3 regimens, N=148): 8 (5) % | Grade 3/4 AE: Infections (all 3 regimens, N=148): 30 (20) % | Grade 3/4 AE: Leukopenia (all 3 regimens, N=148): 15 (10) % | Grade 3/4 AE: Neutropenia (all 3 regimens, N=148): 47 (32) % | Grade 3/4 AE: Pneumonia (all 3 regimens, N=148): 5 (3) % | Grade 3/4 AE: Rectal hemorrhage (all 3 regimens, N=148): 1 (1) % | Grade 3/4 AE: Thrombocytopenia (all 3 regimens, N=148): 26 (18) % | Grade 3/4 AE: Urinary tract infection (all 3 regimens, N=148): 3 (2) % | Grade 3/4 AE: ≥1 Adverse Event (all 3 regimens, N=148): 108 (73) % | serious AEs involving GI disorders (all 3 regimens, n=12): 8% | serious AEs involving blood or lymphatic system disorders (all 3 regimens, n=19): 13% | serious AEs involving infections (all 3 regimens, n=31): 21% | patients platelet transfusion independent at baseline who remained independent (each alternative dosing regimen group): ≥ 92% | patients with trilineage HI (each of the 3 alternative treatment groups (2 patients each)): 4% | platelet transfusion independence in baseline-dependent patients (five patients (AZA 5-2-2 n=2, AZA 5 n=3)): all of whom achieved transfusion independence | tolerability (three alternative dosing regimens): generally well tolerated
